Measurements as given in paper PMC4230943, “Mimicking Hypoxia to Treat Anemia: HIF-Stabilizer BAY 85-3934 (Molidustat) Stimulates Erythropoietin Production without Hypertensive Effects” (PLoS ONE, 2014).

How the values were obtained:
[1] = BAY 85-3934 plasma levels after oral administration; assay type: in vivo, rat
Method: Male Wistar rats (240–340 g in body weight) were housed with five animals per cage for at least 1 week before experimentation. Blood samples from rats were collected under anesthesia (2% isoflurane in air) by puncturing the retro-orbital vein plexus with a glass capillary. In a repeat-dose, 26-day experiment, animals were administered vehicle or BAY 85-3934 at doses of 0.5 mg/kg, 1.25 mg/kg, 2.5 mg/kg, and 5 mg/kg. PCV was determined at baseline and at weekly intervals after centrifugation in a hematocrit capillary tube (Brand) for 10 min at full speed in a Haemofuge centrifuge (Heraeus). The number of reticulocytes in 5 µl blood was counted after staining with thiazol orange (Becton Dickinson) according to the manufacturer’s instructions by FACS analysis on a BD FACSCalibur system (Becton Dickinson). The efficacy of BAY 85-3934 (2.5 mg/kg, once-daily, oral) was also compared with that of rhEPO (25 IU/kg, 50 IU/kg, and 100 IU/kg, twice-weekly, s.c. injection). The time-course of induction of EPO mRNA expression and plasma EPO was determined at baseline and 0.5 h, 1 h, 2 h, 4 h, 6 h, and 8 h after oral administration of a single dose of BAY 85-3934 (5 mg/kg).
(§1) EPO was measured in plasma samples taken from rodents using a commercial ELISA kit (R&D Systems), according to the manufacturer’s instructions. Relative plasma EPO levels were given in picograms per milliliter. In cynomolgus monkeys, EPO was measured using a combination anti-human EPO ELISAs (R&D Systems and Roche Diagnostics), with human EPO as a standard. Values were given as units per liter. For determination of plasma prorenin from rats, a commercial ELISA (Oxford Biomedical Research) was used according to the manufacturer’s instructions. Hemoglobin in rodent blood samples was determined on a Cell-Dyn 3700 apparatus (Abbott Diagnostics). BAY 85-3934 plasma concentrations were determined after protein precipitation with acetonitrile/ammonium acetate using an internal standard, followed by separation using HPLC/mass spectrometry.

[2] = tested on: male Wistar rats treated with gentamicin; experiment: Gentamicin-induced kidney failure (renal anemia) model; assay type: in vivo, rat
Method: Male Wistar rats were treated once daily with gentamicin (Gibco/Invitrogen) at a dose of 100 mg/kg body weight via i.p. injection on 14 consecutive days, [35]. Control animals received injections of an equal volume of 0.9% saline. After gentamicin treatment, PCV was determined and animals were distributed to the vehicle or treatment groups with respect to equal mean PCV. On day 15, BAY 85-3934 was given orally once daily at doses of 1 mg/kg, 2.5 mg/kg, 5.0 mg/kg, and 10.0 mg/kg, five times weekly.
as §1
Total RNA was extracted from shock-frozen cell or tissue samples using the TRIzol method. Integrity of obtained RNA was checked on a Bioanalyzer (Agilent Technologies). For reverse transcription, 1 µg of total RNA was digested with RNase-free DNase I (Gibco) for 15 min at room temperature, and then reverse-transcribed using Promiscript (Promega GmbH) in a total reaction volume of 40 µl according to the standard protocol of the supplier. After inactivation of the enzyme by heating to 65°C for 15 min, the obtained cDNA was diluted to a final volume of 150 µl with double-distilled water, and 4 µl used per PCR reaction. qRT-PCR, including normalization of raw data to cytosolic β-actin, was carried out as described previously. The resulting expression is given in arbitrary units.
The effect of BAY 85-3934 on the induction of endogenous EPO production was evaluated in an animal model of impaired kidney function, the gentamicin-induced kidney failure model. A mean creatinine clearance of 30% of that of untreated animals and high expression levels of several markers of acute and chronic kidney injury were indicative of substantial renal impairment in these animals. […] The mean absolute levels of induction were lower in the gentamicin-treated animals than in the controls.

O=c1c(-n2ccnn2)c[nH]n1-c1cc(N2CCOCC2)ncn1 [BAY 85-3934, 2-[6-(morpholin-4-yl)pyrimidin-4-yl]-4-(1H-1,2,3-triazol-1-yl)-1,2-dihydro-3H-pyrazol-3-one]
fraction of BAY 85-3934 eliminated from the plasma ([1]; 6 h after 5 mg/kg oral): ~90%
half-life ([1]; rat, plasma, oral, 5 mg/kg, male Wistar rats): 204 min
bioavailability ([1]; rat, plasma, po, 5 mg/kg, male Wistar rats): ~38%
time after onset of treatment for mean PCV to return to baseline ([2]; 2.5 mg/kg): ≤ 2 weeks
mean PCV ([2]; 5 mg/kg and 10 mg/kg, 5 days per week, final values higher than control, p<0.001): prevented the decline in mean PCV
kidney EPO mRNA expression ([2]; 4 h after oral administration): increased dose-dependently
plasma EPO levels ([2]; 4 h after oral administration): significantly and dose-dependently induced
hemoglobin values ([2]; 7 days after the start of treatment): significant dose-dependent increase
reticulocyte counts ([2]; all doses, data not shown): increase in reticulocyte counts
doses giving significant induction of liver EPO mRNA ([2]; control group (no gentamicin)): ≥ 2.5 mg/kg
doses giving significant induction of liver EPO mRNA ([2]; gentamicin-treated animals): ≥ 5 mg/kg
expression of other HIF target genes in kidney and liver ([2]; oral administration): no dose-response
